Measured values reported in US10821152B2, “Methods, agents and compositions for treatment of inflammatory conditions” (Betanien Hospital, priority 2014, dated 2020).
Non-standard residues stand in square brackets, D forms with d. Residues, ends and D or L forms follow the SMILES beside them. *: point of attachment. dPhe(4-NHCONH2) = NC(=O)Nc1ccc(C[C@@H](N)C(=O)O)cc1; Dihydroorotyl(S) = O=C1C[C@@H](C(=O)*)NC(=O)N1; dPhe(4-Cl) = N[C@H](Cc1ccc(Cl)cc1)C(=O)O; Phe(4-NH2) = Nc1ccc(C[C@H](N)C(=O)O)cc1; d2Nal = N[C@H](Cc1ccc2ccccc2c1)C(=O)O; Lys(iPr) = CC(C)NCCCC[C@H](N)C(=O)O; d3Pal = N[C@H](Cc1cccnc1)C(=O)O

Columns and labels:
Type in all cases: in vivo, human
[1] = test system: patient with spondyloarthritis; assay: Treatment of spondyloarthritis with Degarelix (BASDAI)
Description: • person, diagnosed with spondyloarthritis • Fulfilled the ASAS criteria for axial radiographic spondyloarthritis. Experimental Treatment • October 2014 received first dose of Degarelix 240 mg sc. • Received Degarelix 80 mg sc every two weeks thereafter. Assessment of Response Disease activity in ankylosing spondylitis/spondyloarthritis is measured by the BASDAI (Bath Ankylosing Spondylitis Disease Activity Index^1), has been extensively validated in clinical trials^2-3, and is one of the most commonly used outcome measures in clinical trials. This is a composite index that evaluates fatigue, axial and peripheral pain, stiffness and enthesopathy. Their BASDAI was at 3.8 at baseline. In October 2014 they received their first dose of Degarelix 240 mg sc. By 2 weeks, their BASDAI had reduced to 2.9, and by 8 weeks it had reduced to 1.3, remission. At 4 months, their BASDAI continues to be low at 1.5. • Response to therapy in clinical practice is defined as improvement of 2 units or 50% on a 0-10 scale of the BASDAI, and expert opinion that the treatment should be continued. Their reduction by 4 moths was 2.3 we shall continue treatment.

[2] = test system: patient with multiple sclerosis; assay: Treatment of progressive multiple sclerosis with Degarelix, with concomitant Famprydine; conditions: MS patient
Description: • person, diagnosed with multiple sclerosis (MS). Their MS was of the progressive type; characterized by a steady deterioration in function. • Fulfilled the 2010 McDonald Criteria for the diagnosis of MS 1. Experimental Treatment • So far results of clinical trials for progressive MS have generally been disappointing. Currently, there is no FDA approved treatment for progressive MS disease. • December 2014 received first dose of Degarelix 240 mg sc. • Received Degarelix 80 mg s.c every two weeks thereafter. Difficulties in Assessing Response in Progressive MS • Almost all trials in progressive MS show a worsening in function over time. The primary endpoint of these trials is usually to be able to show less worsening in the active treatment group compared to the placebo/other treatment group. Worsening is often defined as an increase in the Expanded Disability Status Scale (EDSS). EDSS is severely restrictive as an outcome measure for trials in progressive sclerosis.^2 Trials have not shown improvements in the EDSS or function in MS patients.^2 Optimal outcome measures in progressive MS are open to debate. • Effective imaging outcomes in clinical trials have allowed for the development of treatments for the relapsing-remitting type of MS. […] One of the most important factors in choosing outcome measures for these patients is the meaningfulness to patients. Assessment of Response at 6 Weeks
This was particularly evident in their ability to raise their feet onto a step, physiotherapy exercises, and dressing. In the past year, they previously had always required their spouse's help to climb a step at home, or to carry out certain lower limb exercises with their physiotherapist. By 4 weeks of GnRH antagonist treatment, they no longer required their spouse's help/physiotherapist's help to perform these activities. They climbed onto a step unaided at […] checkup. The improvement started at around 4 weeks after the initiation of therapy, and continued to improve further by 6 weeks. Expanded Disability Status Scale (EDSS): • This patient's EDSS has remained stable at 6.5, as expected over such a short time period of 6 weeks. A score of 6.5 is equivalent to only being able to walk with the aid of a walker, as in their case. This was evident at baseline and 6 weeks. Multiple Sclerosis Impact Scale 29 (MSIS-29): • Patient-reported outcomes are of increasing importance in trials of progressive multiple sclerosis.^2The most frequently used global patient-reported outcome in multiple sclerosis is the MSIS-29.^3 This has been correlated with clinical and imaging metrics specifically in progressive forms of the disease.^4 According to a recent review,^2 patient reported outcomes in trials of progressive multiple sclerosis can be used to validate MRI or clinical metrics, and increased use of patient-reported outcomes in trials of progressive multiple sclerosis will expected to help satisfy regulators' requirements that treatments show relevant benefit for patients. • At baseline, they scored 121 on the MSIS-29. By 6 weeks, their score was reduced to 110. A clinically significant minimal difference is a score change of 8. Therefore this reduction of 11 in their score is considered clinically significant.^5 Multiple Sclerosis Walking Scale-12 (MSWS-12) • The MSWS-12^6 was designed as a disease-specific patient-based instrument for use in clinical trials and clinical practice, to capture the complex impact of MS on walking ability. […] One of the most important attributes of the MSWS-12 in comparison to other assessments of walking in MS patients, is its responsiveness to change. […] By 6 weeks, their score was reduced to 53. This is a 12% improvement. A minimal clinically significant difference has not yet been established. […]

[3] = test system: patient with seropositive rheumatoid arthritis; assay: Treatment of RA using Degarelix 40 mg weekly
Description: • person with seropositive rheumatoid arthritis with disease duration of 22 years. • Fulfilled ACR 2010 classification criteria for rheumatoid arthritis. Experimental Treatment • Had tried most therapies available (for example: Humira, Remicade, Enbrel, Actemra, several disease modifying anti-rheumatic drugs), previously without effect or intolerable side effects. • Offered experimental GnRH antagonist therapy, Degarelix 40 mg every week with 240 mg loading dose at baseline. Assessment of Response • Disease activity score (DAS) reduction from 7.3 to 6.7 at 2 weeks. • A DAS reduction of 0.6 units is defined as a clinical response to treatment (1). • Their ESR has decreased from 62 mm to 38 mm, with a decrease in their CRP from 87 mg/L to 67 mg/L.

CC(=O)N[C@H](Cc1ccc2ccccc2c1)C(=O)N[C@H](Cc1ccc(Cl)cc1)C(=O)N[C@H](Cc1cccnc1)C(=O)N[C@@H](CO)C(=O)N[C@@H](Cc1ccc(NC(=O)[C@@H]2CC(=O)NC(=O)N2)cc1)C(=O)N[C@H](Cc1ccc(NC(N)=O)cc1)C(=O)N[C@@H](CC(C)C)C(=O)N[C@@H](CCCCNC(C)C)C(=O)N1CCC[C@H]1C(=O)N[C@H](C)C(N)=O [Degarelix] (Ac-[d2Nal][dPhe(4-Cl)][d3Pal]S[Phe(4-NH2)](Dihydroorotyl(S))[dPhe(4-NHCONH2)]L[Lys(iPr)]P[dA]-NH2)
BASDAI ([1]; at 4 months): 1.5 | BASDAI ([1]; baseline): 3.8 | BASDAI ([1]; by 2 weeks): 2.9 | BASDAI ([1]; by 8 weeks (remission)): 1.3 | timed walk ([2]; 29 Apr. 2015, after discontinuing Famprydine on 5 Apr. 2015): 14.0 s | MFIS-5 ([2]; baseline): 20 | MSIS-29 ([2]; baseline): 121 | MSWS-12 ([2]; baseline): 60 | Expanded Disability Status Scale (EDSS) ([2]; baseline and 6 weeks): 6.5 | Timed 25 Foot Walk (T25FW) ([2]; baseline, stable Famprydine): 16.7 s | timed walk ([2]; by 2 months, with Famprydine): 14.0 s | timed walk ([2]; by 4 months, with Famprydine): 11.9 s | timed walk ([2]; by 5 months (30 Mar. 2015), with Famprydine): 11.8 s | MFIS-5 ([2]; by 6 weeks): 12 | MFIS-5 reduction ([2]; by 6 weeks): 40% | MSIS-29 ([2]; by 6 weeks): 110 | MSWS-12 ([2]; by 6 weeks): 53 | MSWS-12 improvement ([2]; by 6 weeks): 12% | MSIS-29 score reduction ([2]; by 6 weeks, clinically significant minimal difference 8): 11 | General function (patient reported) ([2]; from around 4 weeks to 6 weeks): a general improvement in their function | Disease activity score (DAS) ([3]; at 2 weeks, 240 mg loading, 40 mg weekly): 6.7 | CRP ([3]; baseline): 87 mg/L | Disease activity score (DAS) ([3]; baseline): 7.3 | ESR ([3]; baseline): 62 mm | CRP ([3]; on Degarelix 40 mg weekly): 67 mg/L | ESR ([3]; on Degarelix 40 mg weekly): 38 mm
